Columns and labels:
S. Infantis S59 [1] = assay: MIC for biofilm metabolic activity (MTT reduction assay); type: cell-based, Salmonella enterica Infantis; details: for MICBM80: ≥80% inhibition, 24 h
Procedure: (§1) Ten concentrations of NAC, RLs, and UA were tested to determine the minimum inhibitory concentration for planktonic growth, and subsequently, the six highest concentrations were applied on preformed biofilms to evaluate the biofilm eradication ability of the compounds. MIC was defined as the lowest substance concentration able to inhibit at least 80% of microbial growth (MICPC80 for planktonic cells, MICBC80 for further growth of biofilm cells), inhibit 80% of metabolic activity (MICBM80 for biofilm metabolic activity, MICMPB80 for metabolic activity of preformed biofilm), prevent biofilm formation by at least 80% (MICBF80 for biofilm formation), or reduce a preformed biofilm by at least 80% (MICBR80 for biofilm reduction). The results of MICs are summarized in Table 1 (planktonic cells) and Table 2 (biofilm-associated cells).
(§2) The determination of MICs was performed according to Chlumsky et al.. Briefly, 96-well flat-bottomed microtiter plates were inoculated with 75 µL (for biofilm formation) or 100 µL (for preformed biofilm) of bacterial suspension (A625nm 0.08 to 0.1) in technical triplicates and were then carefully mixed with the dilution series of the test substances (24 h cultivation at 25 °C for S. Infantis, 37 °C for other strains) or were directly cultivated to preform biofilms (18 h). For a positive control of bacterial growth, the inoculum was mixed with a pure sterile medium. Furthermore, the sterile medium was included in the plate as a marker of potential microbial contamination. To evaluate planktonic cells growth (MICPC80) and further growth of biofilm cells (MICBC80), the optical density of the content of the microtiter plates was measured spectrophotometrically at 625 nm before and after 24 h (for biofilm formation) of cultivation or before and after additional 20 h incubation with the tested compound (for preformed biofilm). The difference of A625nm was considered as a measure of the ability of cells to grow in the presence of the tested substances. To evaluate the inhibition of biofilm formation (MICBF80) and reduction in preformed biofilms (MICBR80), biomass was quantified using crystal violet staining, and its metabolic activity (MICBM80 and MICMPB80) was estimated by using the MTT (thiazyl tetrazolium bromide, Sigma-Aldrich, USA) reduction assay, both measured spectrophotometrically at 595 nm.
(§3) All inhibitions were calculated using the formula of Chlumsky et al. below (Equation (1)):(1) A625(595)nm inhibition (%)=A625(595)nm (control) – A625(595)nm(natural substance)/A625(595)nm (control)× 100 where A625(595)nm (control) is the absorbance of bacterial suspension/biofilm itself, and A625(595)nm(natural substance) is the absorbance of the bacterial suspension/biofilm with the added natural substance (NAC, RLs, and UA).
(§4) When the minimum inhibitory concentration could not be determined, the MIC was established as >the highest tested concentration for NAC, RLs, and UA.

S. Infantis S13 [2] = assay: as above; type: cell-based, Salmonella enterica Infantis; details: for MICBM80: ≥80% inhibition, 24 h
Procedure: as §1, §2, §3, §4

L. monocytogenes 149 [3] = assay: MIC for planktonic cell growth (A625nm); type: cell-based, Listeria monocytogenes; details: ≥80% inhibition, 24 h
Procedure: as §1
as §2, with “Furthermore, the sterile medium was included in the plate as a marker of potential microbial contamination.” left out, “The difference of A625nm was considered as a measure of the ability of cells to grow in the presence of the tested substances.” left out
as §3, §4

L. monocytogenes 164 [4] = assay: MIC for planktonic cell growth (A625nm); type: cell-based, Listeria monocytogenes; details: ≥80% inhibition, 24 h
Procedure: as §1
as §2, with “Furthermore, the sterile medium was included in the plate as a marker of potential microbial contamination.” left out, “The difference of A625nm was considered as a measure of the ability of cells to grow in the presence of the tested substances.” left out
as §3, §4

S. Infantis S59 [5] = assay: MIC for metabolic activity of preformed biofilm (MTT reduction assay); type: cell-based, Salmonella enterica Infantis; details: for MICMPB80: ≥80% inhibition, 20 h with substance
Procedure: as §1, §2, §3, §4

S. Infantis S13 [6] = assay: as above; type: cell-based, Salmonella enterica Infantis; details: for MICMPB80: ≥80% inhibition, 20 h with substance
Procedure: as §1, §2, §3, §4

L. monocytogenes 149 [7] = assay: MIC for biofilm formation (crystal violet staining); type: cell-based, Listeria monocytogenes; details: ≥80% prevention, 24 h
Procedure: as §1
as §2, with “Furthermore, the sterile medium was included in the plate as a marker of potential microbial contamination.” left out, “The difference of A625nm was considered as a measure of the ability of cells to grow in the presence of the tested substances.” left out
as §3, §4

L. monocytogenes 164 [8] = assay: as above; type: cell-based, Listeria monocytogenes; details: ≥80% prevention, 24 h
Procedure: as §1
as §2, with “Furthermore, the sterile medium was included in the plate as a marker of potential microbial contamination.” left out, “The difference of A625nm was considered as a measure of the ability of cells to grow in the presence of the tested substances.” left out
as §3, §4

Row | Compound | MICBM80 (S. Infantis S59 [1]) [µg/mL] | MICBM80 (S. Infantis S13 [2]) | MICPC80 (L. monocytogenes 149 [3]) [µg/mL] | MICPC80 (L. monocytogenes 164 [4]) [µg/mL] | MICMPB80 (S. Infantis S59 [5]) | MICMPB80 (S. Infantis S13 [6]) | MICBF80 (L. monocytogenes 149 [7]) [µg/mL] | MICBF80 (L. monocytogenes 164 [8]) [µg/mL] | maximal achieved inhibition (MICBM80 not reached) (S. Infantis S59 [1]; within tested concentrations) [%] | maximal achieved inhibition (MICBM80 not reached) (S. Infantis S13 [2]; within tested concentrations) [%] | maximal achieved inhibition (MICMPB80 not reached) (S. Infantis S59 [5]; within tested concentrations) [%] | maximal achieved inhibition (MICMPB80 not reached) (S. Infantis S13 [6]; within tested concentrations) [%]
1 | CC(=O)N[C@@H](CS)C(=O)O [NAC, N-Acetyl-L-cysteine] | 6250 | 12,500 µg/mL | 3130 | 6250 | 12,500 µg/mL | 12,500 µg/mL | 6250 | 6250 | – | – | – | –
2 | CC(=O)c1c(O)c(C)c(O)c2c1OC1=CC(=O)C(C(C)=O)C(=O)C12C (single isomer, unassigned; (+)) [UA, (+)-usnic acid] | > 31.3 | > 31.3 µg/mL | 0.98 | 1.96 | > 31.3 µg/mL | > 31.3 µg/mL | 0.98 | 1.96 | 47 | 41 | 26 | 17

Reference: publication PMC8583417, “Evaluation of the Antimicrobial Efficacy of N-Acetyl-L-Cysteine, Rhamnolipids, and Usnic Acid—Novel Approaches to Fight Food-Borne Pathogens” (International Journal of Molecular Sciences, 2021)
